The text below walks through data of a flash point compilation (Sun et al. 2020).

The structures appear in SMILES notation.

Turning to `COc1cccc(C)c1` [3-methylanisole], the flash point came to 52 °C. To `CC(C)CC#N` [3-methylbutanenitrile] belongs 28 °C; to `CC1C=CCCC1` (stereo not drawn) [3-methylcyclohexene], -3 °C; to `CC1CCC(=O)C1` (stereo not drawn) [3-methylcyclopentanone], 34 °C. In turn, `Cc1ccoc1` [3-methylfuran] registered a flash point of -22 °C. To `CCCCCCC(C)CC` (stereo not drawn) [3-methylnonane] belongs 41 °C; to `CCCCCC(C)CC` (stereo not drawn) [3-methyloctane], 24 °C.

Turning to `CCC(C)CC` [3-methylpentane], the flash point is -32 °C.

Consider `CCCCCCC(=O)CC` [3-nonanone], for which the flash point was determined as 63 °C. Turning to `CCCCCC(=O)CC` [3-octanone], the flash point was determined as 51 °C. For `CCC(N)CC` [3-pentanamine] the value was 2 °C.

Regarding `CCC(O)CC` [3-pentanol], the flash point was determined as 33 °C. For `CCC(=O)CC` [3-pentanone] the value was 7 °C; for `Cc1cccnc1` [3-picoline], 36 °C; for `CC(C)(C)c1cccc(N)c1` [3-tert-butylaniline], 101 °C. For `CC(C)(C)C1CCC(=O)C1` (stereo not drawn) [3-tert-butylcyclopentanone] the value was 64 °C; for `CC#CC(C)(C)C` [4,4-dimethyl-2-pentyne], -10 °C; for `CCCC(C)(C)CCC` [4,4-dimethylheptane], 15 °C. To `CCCCc1ccc(N)cc1` [4-butylaniline] belongs 102 °C; to `Cc1ccc(Cl)cc1` [4-chlorotoluene], 46 °C. Compound `CCc1ccc(C)c(C)c1` [4-ethyl-1,2-dimethylbenzene] registered a flash point of 58 °C. To `CCCC(CC)C(C)CC` (stereo not drawn) [4-ethyl-3-methylheptane] belongs 41 °C. To `CCC1CCC(=O)CC1` [4-ethylcyclohexanone] belongs 63 °C. For `CCCCC(CC)CCC` (stereo not drawn) [4-ethyloctane], the flash point came out at 41 °C. For `C=Cc1ccc(F)cc1` [4-fluorostyrene] the value was 35 °C; for `Cc1ccc(F)cc1` [4-fluorotoluene], 12 °C.

For `Cc1ccc(I)cc1` [4-iodotoluene], the flash point was determined as 90 °C.

Turning to `CC(C)C1CCC(=O)CC1` [4-isopropylcyclohexanone], the flash point worked out at 65 °C.

On to `C=CCC(C)C` [4-methyl-1-pentene], for which the flash point was -32 °C.

The compound `CC(C)CC(C)O` (stereo not drawn) [4-methyl-2-pentanol] had a flash point of 41 °C. Compound `COc1ccc(C)cc1` [4-methylanisole] came in with a flash point of 53 °C. In turn, `CC1CC=CCC1` (stereo not drawn) [4-methylcyclohexene] yielded a flash point of -1 °C.

On to `CCCC(C)CCC` [4-methylheptane], for which the flash point was found to be 5 °C. For `CCCCC(=O)CCC` [4-octanone] the value was 45 °C; for `CCCC#CCCC` [4-octyne], 18 °C. To `C=CCCCO` [4-penten-1-ol] belongs 43 °C; to `CC=Cc1ccc(OC)cc1` [4-propenylanisole], 96 °C. Turning to `CCCc1ccc(N)cc1` [4-propylaniline], the flash point turned out to be 103 °C. The compound `CCCc1ccc(OC)cc1` [4-propylanisole] yielded a flash point of 82 °C. For `CCCC(CCC)CCC` [4-propylheptane] the value was 35 °C; for `CCCc1ccc(O)cc1` [4-propylphenol], 106 °C; for `CCC(C)c1ccc(N)cc1` (stereo not drawn) [4-sec-butylaniline], 108 °C.

With `CC(C)(C)c1ccc(N)cc1` [4-tert-butylaniline], the flash point amounted to 102 °C.
